According to the RepoRT retention time repository (doi:10.1038/s41586-021-03707-9):

Key:
[1] = RP, Waters ACQUITY UPLC HSS C18, 100 × 2.1 mm, 1.7 µm, 40 °C, 0.35 mL/min, estimated dead time 0.63 min; A: water + 0.1% formic acid; B: methanol + 0.1% formic acid; gradient (min/%B) 0/0.5 4/70 4.5/98 5.4/98; conditions: stereoisomer not certain
[2] = Waters ACQUITY UPLC BEH C18, 100 × 2.1 mm, 1.7 µm, 40 °C, 0.28 mL/min, estimated dead time 0.63 min; A: water + 6.5 mM ammonium hydroxide; B: methanol + 6.5 mM ammonium hydroxide; gradient (min/%B) 0/0.5 4/70 4.5/98 5.4/98; conditions: stereoisomer not certain

| Compound | LC retention time [1] [min] | LC retention time [2] [min] |
| --- | --- | --- |
| CC(=O)OC(CC(=O)[O-])C[N+](C)(C)C (stereo unspecified) | 0.864 | 0.849 |
| O=C(NC(O)C(=O)O)c1ccccc1 (stereo unspecified) | 2.8 | 2.02 |
| CCC(O)(CC)C(=O)O | 3.56 | 1.31 |
| O=C(O)CCCCc1ccccc1 | 5 | 4.37 |
| Nc1ccccc1C(=O)CC(N)C(=O)O (stereo unspecified) | 2.2 | 2.21 |
| OCC1OC(OCC2OC(OC3(CO)OC(CO)C(O)C3O)C(O)C(O)C2O)C(O)C(O)C1O (stereo unspecified) | 0.835 | 1.05 |
| NCC(O)c1ccccc1 (stereo unspecified) | 2.04 | 3.07 |
| CC(CN)C(=O)O (stereo unspecified) | 0.839 | 0.808 |
| Nc1cc(C(=O)O)ccc1O | 1.25 | 0.796 |
| COc1ccc(OC)c(C(O)C(C)N)c1 (stereo unspecified) | 3.14 | 3.99 |
| O=C(O)C(O)Cc1ccc(O)cc1 (stereo unspecified) | 2.87 | 1.51 |
| COC(=O)Cc1c[nH]c2ccccc12 | 4.85 | 5.01 |
| O=C(O)CCCCCCCCCO | 5.06 | 3.96 |
| CNCC(O)c1ccc(O)cc1 (stereo unspecified) | 0.855 | 1.96 |
| NC(CC(=O)O)C(=O)NC(Cc1ccccc1)C(=O)O (stereo unspecified) | 2.95 | 1.73 |
| CCCCCCC(O)C(=O)O (stereo unspecified) | 5.18 | 4.12 |
| CSc1ncnc2nc[nH]c12 | 3.43 | 3.28 |
| CC(=O)OCC(N)C(=O)O (stereo unspecified) | 0.854 | 0.876 |
| Cc1cnc(=O)[nH]c1N | 0.911 | 1.62 |
| Cc1c[nH]c(=O)[nH]c1=O | 1.88 | 1.94 |
| O=C(O)CNC(=O)CCc1ccccc1 | 2.34 | 3.32 |
| CCN(CC)CCNC(=O)c1ccc(N)cc1 | 2.01 | 3.81 |
| COc1cc(C(O)CN)ccc1O (stereo unspecified) | 1.16 | 1.88 |
| Cn1cnc2c(ncn2C2OC(CO)C(O)C2O)c1=N (stereo unspecified) | 2.33 | 3.02 |
| O=C1CCCc2[nH]ccc21 | 2.95 | 3.04 |
| COC(=O)c1ccc(O)c(OC)c1 | 4.36 | 4.18 |
| O=C(O)C1CCCCN1 (stereo unspecified) | 1.15 | 1.14 |
| O=C(O)c1ccc(O)cc1 | 3.1 | 0.892 |
